Data taken from patent publication US7015215B2, “Pyrrolo[2,1-c][1,4] benzodiazepines compounds and process thereof” (Council of Scientific and Industrial Research, priority 2003, dated 2006).

Columns and labels:
Assay type in all cases: cell-based, human
SR = experiment: NCI SRB cytotoxicity, Leukemia SR; details: 48 h
Procedure: (§1) Biological Activity: In vitro biological activity studies were carried out at National Cancer Institute (U.S.A.).
(§2) For each compound, dose response curves for each cell line were measured at a minimum of five concentrations at 10 fold dilutions. A protocol of 48 h continuous drug exposure was used, and a sulforhodamine B (SRB) protein assay was used to estimate cell viability or growth. The concentration causing 50% cell growth inhibition (GI50), total cell growth inhibition (TGI, 0% growth) and 50% cell death (LC50, −50% growth) compared with the control was calculated.

HOP-62 = experiment: NCI SRB cytotoxicity, Non-small-cell lung HOP-62; details: HOP-62, Non-small-cell lung, 48 h
Procedure: as §1, §2

NCI-H460 = experiment: NCI SRB cytotoxicity, Non-small-cell lung NCI-H460; details: 48 h
Procedure: as §1, §2

NCI-H522 = experiment: NCI SRB cytotoxicity, Non-small-cell lung NCI-H522; details: 48 h
Procedure: as §1, §2

COLO 205 = experiment: NCI SRB cytotoxicity, Colon COLO 205; details: COLO 205, Colon, 48 h
Procedure: as §1, §2

HCC-2998 = experiment: NCI SRB cytotoxicity, Colon HCC-2998; details: HCC-2998, Colon, 48 h
Procedure: as §1, §2

HCT-15 = experiment: NCI SRB cytotoxicity, Colon HCT-15; details: HCT-15, Colon, 48 h
Procedure: as §1, §2

HT-29 = experiment: NCI SRB cytotoxicity, Colon HT-29; details: HT-29, Colon, 48 h
Procedure: as §1, §2

SF-295 = experiment: NCI SRB cytotoxicity, CNS SF-295; details: SF-295, CNS, 48 h
Procedure: as §1, §2

SF-539 = experiment: NCI SRB cytotoxicity, CNS SF-539; details: SF-539, CNS, 48 h
Procedure: as §1, §2

SNB-19 = experiment: NCI SRB cytotoxicity, CNS SNB-19; details: SNB-19, CNS, 48 h
Procedure: as §1, §2

U251 = experiment: NCI SRB cytotoxicity, CNS U251; details: 48 h
Procedure: as §1, §2

MALME-3M = experiment: NCI SRB cytotoxicity, Melanoma MALME-3M; details: 48 h
Procedure: as §1, §2

OVCAR-4 = experiment: NCI SRB cytotoxicity, Ovarian OVCAR-4; details: OVCAR-4, Ovarian, 48 h
Procedure: as §1, §2

OVCAR-8 = experiment: NCI SRB cytotoxicity, Ovarian OVCAR-8; details: OVCAR-8, Ovarian, 48 h
Procedure: as §1, §2

SK-OV-3 = experiment: NCI SRB cytotoxicity, Ovarian SK-OV-3; details: SK-OV-3, Ovarian, 48 h
Procedure: as §1, §2

ACHN = experiment: NCI SRB cytotoxicity, Renal ACHN; details: 48 h
Procedure: as §1, §2

CAKI-1 = experiment: NCI SRB cytotoxicity, Renal CAKI-1; details: CAKI-1, Renal, 48 h
Procedure: as §1, §2

NCI/ADR-RES = experiment: NCI SRB cytotoxicity, Breast NCI/ADR-RES; details: 48 h
Procedure: as §1, §2

MDA-MB-231/ATCC = experiment: NCI SRB cytotoxicity, Breast MDA-MB-231/ATCC; details: 48 h
Procedure: as §1, §2

T-47D = experiment: NCI SRB cytotoxicity, Breast T-47D; details: 48 h
Procedure: as §1, §2

LOXIMVI = experiment: NCI SRB cytotoxicity, Melanoma LOXIMVI; details: 48 h
Procedure: as §1, §2

| SMILES | Log LC 50 (HOP-62) [mol/L] | Log LC 50 (NCI-H460) [mol/L] | Log LC 50 (NCI-H522) [mol/L] | Log GI 50 (COLO 205) [mol/L] | Log LC 50 (COLO 205) [mol/L] | Log GI 50 (HCT-15) [mol/L] | Log LC 50 (HCT-15) [mol/L] | Log GI 50 (HT-29) [mol/L] | Log LC 50 (HT-29) [mol/L] | Log LC 50 (SF-295) [mol/L] | Log LC 50 (SF-539) [mol/L] | Log LC 50 (SNB-19) [mol/L] | Log LC 50 (U251) [mol/L] | Log GI 50 (OVCAR-4) [mol/L] | Log LC 50 (OVCAR-4) [mol/L] | Log LC 50 (OVCAR-8) [mol/L] | Log LC 50 (ACHN) [mol/L] | Log LC 50 (CAKI-1) [mol/L] | Log GI 50 (NCI/ADR-RES) [mol/L] | Log LC 50 (NCI/ADR-RES) [mol/L] | other results |
| --- | --- | --- | --- | --- | --- | --- | --- | --- | --- | --- | --- | --- | --- | --- | --- | --- | --- | --- | --- | --- | --- |
| COc1cc2c(cc1OCCCCN1CCN(CCCCOc3cc4c(cc3OC)C(=O)N3CCC[C@H]3C=N4)CC1)N=C[C@@H]1CCCN1C2=O [Compound VIc, 1,1′-{[(bisbutane-1,N-diyl)piperazine]dioxy}bis[(11aS)-7-methoxy-1,2,3,11a-tetrahydro-5H-pyrrolo[2,1-c][1,4]benzodiazepin-5-one]] | −4.00 | −4.00 | −4.00 | −7.99 | −6.26 | −7.92 | −6.37 | −7.89 | −4.00 | −4.69 | −4.00 | −4.44 | −4.41 | −7.11 | −4.00 | −4.00 | −4.00 | −4.28 | −6.47 | −4.00 | Log LC 50 (SR): −5.62 mol/L; Log GI 50 (HCC-2998): −7.95 mol/L; Log LC 50 (HCC-2998): −4.00 mol/L; Log LC 50 (MALME-3M): −7.41 mol/L; Log LC 50 (SK-OV-3): −4.00 mol/L; Log GI 50 (MDA-MB-231/ATCC): −7.47 mol/L; Log LC 50 (MDA-MB-231/ATCC): −4.43 mol/L; Log LC 50 (T-47D): −4.00 mol/L |
| COc1cc2c(cc1OCCCCCN1CCN(CCCCCOc3cc4c(cc3OC)C(=O)N3CCC[C@H]3C=N4)CC1)N=C[C@@H]1CCCN1C2=O [Compound VId] | −4.00 | −4.00 | −4.00 | −5.49 | −4.00 | −4.25 | −4.00 | −5.02 | −4.00 | −4.00 | −4.00 | −4.00 | −4.00 | −5.38 | −4.00 | −4.00 | −4.00 | −4.00 | −4.00 | −4.00 | Log GI 50 (SR): −5.37 mol/L; Log LC 50 (SR): −4.00 mol/L; Log GI 50 (HOP-62): −4.00 mol/L; Log GI 50 (NCI-H460): −5.49 mol/L; Log GI 50 (NCI-H522): −5.47 mol/L; Log GI 50 (HCC-2998): −5.69 mol/L; Log LC 50 (HCC-2998): −4.29 mol/L; Log GI 50 (SF-295): −5.30 mol/L; Log GI 50 (SF-539): −5.44 mol/L; Log GI 50 (SNB-19): −4.00 mol/L; Log GI 50 (U251): −5.47 mol/L; Log GI 50 (LOXIMVI): −5.61 mol/L; Log LC 50 (LOXIMVI): −4.00 mol/L; Log GI 50 (OVCAR-8): −4.67 mol/L; Log GI 50 (ACHN): −4.63 mol/L; Log GI 50 (CAKI-1): −5.77 mol/L; Log GI 50 (MDA-MB-231/ATCC): −5.42 mol/L; Log LC 50 (MDA-MB-231/ATCC): −4.00 mol/L; Log GI 50 (T-47D): −5.00 mol/L; Log LC 50 (T-47D): −4.00 mol/L |
| COc1cc2c(cc1OCCCN1CCN(CCCOc3cc4c(cc3OC)C(=O)N3CCC[C@H]3C=N4)CC1)N=C[C@@H]1CCCN1C2=O [Compound VIb, 1,1′-{[(bispropane-1,N-diyl)piperazine]dioxy}bis[(11aS)-7-methoxy-1,2,3,11a-tetrahydro-5H-pyrrolo[2,1-c][1,4]benzodiazepin-5-one]] | −4.00 | −4.00 | −4.00 | −5.34 | −4.00 | −4.25 | −4.00 | −4.46 | −4.00 | −4.00 | −4.00 | −4.00 | −4.00 | −4.13 | −4.00 | −4.00 | −4.00 | −4.00 | −4.00 | −4.00 | Log GI 50 (HOP-62): −5.14 mol/L; Log GI 50 (NCI-H460): −5.37 mol/L; Log GI 50 (NCI-H522): −6.40 mol/L; Log GI 50 (HCC-2998): −4.73 mol/L; Log LC 50 (HCC-2998): −4.04 mol/L; Log GI 50 (SF-295): −4.99 mol/L; Log GI 50 (SF-539): −6.21 mol/L; Log GI 50 (SNB-19): −5.06 mol/L; Log GI 50 (U251): −5.41 mol/L; Log GI 50 (MALME-3M): −5.39 mol/L; Log GI 50 (OVCAR-8): −4.48 mol/L; Log GI 50 (ACHN): −4.47 mol/L; Log GI 50 (CAKI-1): −4.65 mol/L; Log GI 50 (MDA-MB-231/ATCC): −4.52 mol/L; Log LC 50 (MDA-MB-231/ATCC): −4.00 mol/L; Log GI 50 (T-47D): −5.16 mol/L; Log LC 50 (T-47D): −4.00 mol/L |
| COc1cc2c(cc1OCCN1CCN(CCOc3cc4c(cc3OC)C(=O)N3CCC[C@H]3C=N4)CC1)N=C[C@@H]1CCCN1C2=O [Compound VIa, 1,1′-{[(bisethane-1,N-diyl)piperazine]dioxy}bis[(11aS)-7-methoxy-1,2,3,11a-tetrahydro-5H-pyrrolo[2,1-c][1,4]benzodiazepin-5-one]] | −4.00 | −4.00 | −4.00 | −4.66 | −4.00 | −4.39 | −4.00 | −4.58 | −4.00 | −4.00 | −4.00 | −4.00 | −4.00 | −4.00 | −4.00 | −4.00 | −4.00 | −4.00 | −4.00 | −4.00 | Log GI 50 (SR): −6.68 mol/L; Log LC 50 (SR): −5.21 mol/L; Log GI 50 (HOP-62): −4.46 mol/L; Log GI 50 (NCI-H460): −4.95 mol/L; Log GI 50 (NCI-H522): −4.94 mol/L; Log GI 50 (SF-295): −5.06 mol/L; Log GI 50 (SF-539): −4.97 mol/L; Log GI 50 (SNB-19): −4.75 mol/L; Log GI 50 (U251): −4.87 mol/L; Log GI 50 (MALME-3M): −5.46 mol/L; Log LC 50 (MALME-3M): −4.17 mol/L; Log GI 50 (OVCAR-8): −4.58 mol/L; Log GI 50 (SK-OV-3): −4.00 mol/L; Log LC 50 (SK-OV-3): −4.00 mol/L; Log GI 50 (ACHN): −4.82 mol/L; Log GI 50 (CAKI-1): −5.04 mol/L; Log GI 50 (MDA-MB-231/ATCC): −4.67 mol/L; Log LC 50 (MDA-MB-231/ATCC): −4.00 mol/L; Log GI 50 (T-47D): −4.57 mol/L; Log LC 50 (T-47D): −4.00 mol/L |
